{
  "source": "paper PMC12472391",
  "about": "“Borylated Five-Membered Ring Iminosugars: Synthesis, Spectroscopic Analysis, and Biological Evaluation for Glycosidase Inhibition and Anticancer Properties for Application in Boron Neutron Capture Therapy (BNCT)—Part 1” (Pharmaceuticals, 2025)",
  "origin": "cited, not measured here",
  "details_in_all_cases": "cited from earlier work",
  "key": {"[1]": {"molecular_target": "β-D-galactosidase (E. coli) (Escherichia coli, UniProt P00722)", "sequence (P00722 2-1024)": "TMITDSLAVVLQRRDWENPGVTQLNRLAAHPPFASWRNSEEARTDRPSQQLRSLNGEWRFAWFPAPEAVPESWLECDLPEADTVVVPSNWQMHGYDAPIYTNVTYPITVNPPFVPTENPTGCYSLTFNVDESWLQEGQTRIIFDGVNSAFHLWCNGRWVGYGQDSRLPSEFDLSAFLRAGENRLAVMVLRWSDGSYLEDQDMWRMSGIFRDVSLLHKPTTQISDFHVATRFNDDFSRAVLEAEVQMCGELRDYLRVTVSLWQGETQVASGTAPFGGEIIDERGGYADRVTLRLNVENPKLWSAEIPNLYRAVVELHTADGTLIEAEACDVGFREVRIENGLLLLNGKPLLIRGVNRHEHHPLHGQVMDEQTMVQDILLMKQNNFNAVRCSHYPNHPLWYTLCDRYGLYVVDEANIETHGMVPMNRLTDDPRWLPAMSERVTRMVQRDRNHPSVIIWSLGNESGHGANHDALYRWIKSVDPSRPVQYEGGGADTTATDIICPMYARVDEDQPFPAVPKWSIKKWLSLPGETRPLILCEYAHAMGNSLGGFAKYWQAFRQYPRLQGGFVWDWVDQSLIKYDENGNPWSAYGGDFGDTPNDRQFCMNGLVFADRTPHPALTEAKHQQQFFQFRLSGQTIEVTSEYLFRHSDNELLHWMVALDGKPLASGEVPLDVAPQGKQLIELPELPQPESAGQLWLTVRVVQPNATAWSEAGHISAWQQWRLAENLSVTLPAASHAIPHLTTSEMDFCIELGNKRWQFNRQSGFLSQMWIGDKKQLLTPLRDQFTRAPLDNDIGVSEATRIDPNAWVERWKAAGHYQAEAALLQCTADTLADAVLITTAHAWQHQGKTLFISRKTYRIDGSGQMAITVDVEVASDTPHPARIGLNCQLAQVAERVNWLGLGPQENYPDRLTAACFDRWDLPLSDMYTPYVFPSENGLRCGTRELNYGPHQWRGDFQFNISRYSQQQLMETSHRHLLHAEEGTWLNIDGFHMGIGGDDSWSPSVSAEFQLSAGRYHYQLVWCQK"}, "[2]": {"tested_on": "α-D-mannosidase (Golgi II)", "design": "method as in PMID 2706004"}, "[3]": {"tested_on": "β-D-N-acetylhexosaminidase", "design": "method as in PMID 2706004"}, "β-D-mannosidase": {"tested_on": "β-D-mannosidase", "design": "method as in PMID 2706004"}, "α-L-fucosidase": {"tested_on": "α-L-fucosidase", "design": "method as in PMID 2706004"}, "[4]": {"tested_on": "α-D-mannosidase (lysosomal acidic)", "design": "method as in PMID 2706004"}, "α-D-glucosidase": {"tested_on": "α-D-glucosidase", "design": "method as in PMID 31557624"}, "aldose reductase": {"tested_on": "aldose reductase", "design": "method as in PMID 31557624"}, "[5]": {"tested_on": "α-D-mannosidase (lysosomal acidic)", "design": "method as in PMID 8457203"}, "[6]": {"tested_on": "α-D-galactosidase (coffee bean)", "design": "method as in PMID 31944194"}, "[7]": {"molecular_target": "T1, β-D-galactosidase (bovine liver) (Bos taurus, UniProt Q58D55)", "T1 sequence (Q58D55 28-653)": "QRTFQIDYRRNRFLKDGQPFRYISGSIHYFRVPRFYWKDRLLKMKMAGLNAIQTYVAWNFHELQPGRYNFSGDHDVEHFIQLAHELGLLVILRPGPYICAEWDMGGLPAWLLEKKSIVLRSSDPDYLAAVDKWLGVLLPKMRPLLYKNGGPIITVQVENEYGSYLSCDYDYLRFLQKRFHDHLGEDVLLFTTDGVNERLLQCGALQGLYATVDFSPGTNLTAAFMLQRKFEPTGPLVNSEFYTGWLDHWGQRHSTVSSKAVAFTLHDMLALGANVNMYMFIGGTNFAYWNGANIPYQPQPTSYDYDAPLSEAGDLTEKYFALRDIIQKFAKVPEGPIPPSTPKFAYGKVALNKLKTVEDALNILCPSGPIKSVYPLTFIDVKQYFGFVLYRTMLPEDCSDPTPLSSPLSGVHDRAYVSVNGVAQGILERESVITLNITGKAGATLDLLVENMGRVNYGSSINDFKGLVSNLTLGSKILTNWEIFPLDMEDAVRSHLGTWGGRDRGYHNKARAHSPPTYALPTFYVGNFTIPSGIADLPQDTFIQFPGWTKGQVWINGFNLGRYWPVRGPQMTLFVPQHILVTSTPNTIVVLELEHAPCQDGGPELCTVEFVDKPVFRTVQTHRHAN", "design": "method as in PMID 31944194"}, "α-D-glucosidase (rice)": {"molecular_target": "α-D-glucosidase (rice) (Oryza sativa subsp. japonica, UniProt Q653V7)", "sequence (Q653V7 34-885)": "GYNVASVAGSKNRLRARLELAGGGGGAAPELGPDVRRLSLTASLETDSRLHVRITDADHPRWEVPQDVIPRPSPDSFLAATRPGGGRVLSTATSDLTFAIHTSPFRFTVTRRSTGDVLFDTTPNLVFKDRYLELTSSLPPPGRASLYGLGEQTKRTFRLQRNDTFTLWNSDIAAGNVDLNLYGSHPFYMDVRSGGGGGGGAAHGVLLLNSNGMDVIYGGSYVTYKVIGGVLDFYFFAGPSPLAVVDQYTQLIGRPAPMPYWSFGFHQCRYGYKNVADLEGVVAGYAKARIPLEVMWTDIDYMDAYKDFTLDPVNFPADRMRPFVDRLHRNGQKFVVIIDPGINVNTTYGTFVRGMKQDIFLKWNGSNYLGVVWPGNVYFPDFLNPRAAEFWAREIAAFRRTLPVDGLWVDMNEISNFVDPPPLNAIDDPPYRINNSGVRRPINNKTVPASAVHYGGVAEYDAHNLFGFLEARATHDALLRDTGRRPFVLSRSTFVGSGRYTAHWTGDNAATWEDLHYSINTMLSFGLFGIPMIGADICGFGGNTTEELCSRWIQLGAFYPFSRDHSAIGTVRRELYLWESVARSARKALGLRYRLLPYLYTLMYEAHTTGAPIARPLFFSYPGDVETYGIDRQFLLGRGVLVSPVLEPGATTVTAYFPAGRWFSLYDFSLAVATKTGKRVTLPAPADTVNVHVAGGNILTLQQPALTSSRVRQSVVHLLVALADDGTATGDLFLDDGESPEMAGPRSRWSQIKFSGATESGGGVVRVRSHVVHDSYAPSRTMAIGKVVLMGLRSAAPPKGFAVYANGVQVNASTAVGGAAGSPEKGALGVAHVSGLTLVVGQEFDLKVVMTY", "design": "method as in PMID 31944194"}, "[8]": {"molecular_target": "fruit fly lysosomal acidic α-D-mannosidase", "design": "method as in PMID 29323461"}, "[9]": {"tested_on": "α-D-mannosidase (Golgi II)", "design": "method as in PMID 8457203"}, "[10]": {"tested_on": "α-D-glucosidase (rat intestinal maltase)", "design": "method as in PMID 31944194"}, "[11]": {"tested_on": "α-D-mannosidase (neutral)", "design": "method as in PMID 8457203"}, "[12]": {"molecular_target": "fruit fly Golgi II α-D-mannosidase", "design": "method as in PMID 29323461"}, "α-D-glucosidase (yeast)": {"molecular_target": "T2, α-D-glucosidase (yeast) (Saccharomyces cerevisiae, UniProt P53341)", "T2 construct": "purchased Sigma", "T2 sequence (P53341 whole entry)": "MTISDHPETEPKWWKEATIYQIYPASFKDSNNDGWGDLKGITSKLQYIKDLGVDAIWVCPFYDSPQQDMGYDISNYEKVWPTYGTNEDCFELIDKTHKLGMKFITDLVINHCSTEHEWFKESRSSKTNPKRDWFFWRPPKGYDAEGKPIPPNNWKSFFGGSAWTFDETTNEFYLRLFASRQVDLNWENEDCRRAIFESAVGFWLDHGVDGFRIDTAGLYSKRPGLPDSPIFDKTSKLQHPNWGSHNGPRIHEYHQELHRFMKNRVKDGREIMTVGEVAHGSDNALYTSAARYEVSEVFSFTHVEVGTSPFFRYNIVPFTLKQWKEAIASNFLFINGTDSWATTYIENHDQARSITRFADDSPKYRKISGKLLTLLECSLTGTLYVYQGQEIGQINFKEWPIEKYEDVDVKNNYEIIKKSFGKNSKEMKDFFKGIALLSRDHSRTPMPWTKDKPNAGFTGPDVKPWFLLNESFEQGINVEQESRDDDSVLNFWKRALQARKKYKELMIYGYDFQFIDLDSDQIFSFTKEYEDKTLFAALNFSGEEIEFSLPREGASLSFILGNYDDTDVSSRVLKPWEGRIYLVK", "design": "method as in PMID 31944194"}, "β-D-glucosidase (almond)": {"tested_on": "β-D-glucosidase (almond)", "design": "method as in PMID 31944194"}, "[13]": {"tested_on": "α-L-fucosidase (bovine kidney)", "design": "method as in PMID 31944194"}, "[14]": {"tested_on": "trehalase (porcine kidney)", "design": "method as in PMID 31944194"}, "[15]": {"molecular_target": "T3, β-D-glucuronidase (E. coli) (Escherichia coli, UniProt P05804)", "T3 construct": "purchased Sigma-Aldrich Co", "T3 sequence (P05804 whole entry)": "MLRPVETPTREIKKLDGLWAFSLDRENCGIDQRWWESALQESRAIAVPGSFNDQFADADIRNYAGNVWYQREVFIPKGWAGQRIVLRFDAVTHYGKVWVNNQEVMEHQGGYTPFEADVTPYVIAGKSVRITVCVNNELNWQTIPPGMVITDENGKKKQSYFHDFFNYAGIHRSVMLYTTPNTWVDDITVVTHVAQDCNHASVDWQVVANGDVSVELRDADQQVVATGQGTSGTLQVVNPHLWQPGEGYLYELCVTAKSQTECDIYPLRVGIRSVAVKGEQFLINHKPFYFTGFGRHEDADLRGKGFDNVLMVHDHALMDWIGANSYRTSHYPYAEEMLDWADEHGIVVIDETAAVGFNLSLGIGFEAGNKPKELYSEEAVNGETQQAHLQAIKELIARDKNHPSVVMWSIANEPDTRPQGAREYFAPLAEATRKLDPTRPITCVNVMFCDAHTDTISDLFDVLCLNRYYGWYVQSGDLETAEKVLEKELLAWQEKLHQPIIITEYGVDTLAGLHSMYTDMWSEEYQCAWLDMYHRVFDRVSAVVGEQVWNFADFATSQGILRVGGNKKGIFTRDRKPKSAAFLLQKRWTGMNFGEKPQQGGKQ", "design": "method as in PMID 31944194"}, "[16]": {"molecular_target": "β-D-glucosidase (human lysosome) (Homo sapiens, UniProt P04062)", "sequence (P04062 40-536)": "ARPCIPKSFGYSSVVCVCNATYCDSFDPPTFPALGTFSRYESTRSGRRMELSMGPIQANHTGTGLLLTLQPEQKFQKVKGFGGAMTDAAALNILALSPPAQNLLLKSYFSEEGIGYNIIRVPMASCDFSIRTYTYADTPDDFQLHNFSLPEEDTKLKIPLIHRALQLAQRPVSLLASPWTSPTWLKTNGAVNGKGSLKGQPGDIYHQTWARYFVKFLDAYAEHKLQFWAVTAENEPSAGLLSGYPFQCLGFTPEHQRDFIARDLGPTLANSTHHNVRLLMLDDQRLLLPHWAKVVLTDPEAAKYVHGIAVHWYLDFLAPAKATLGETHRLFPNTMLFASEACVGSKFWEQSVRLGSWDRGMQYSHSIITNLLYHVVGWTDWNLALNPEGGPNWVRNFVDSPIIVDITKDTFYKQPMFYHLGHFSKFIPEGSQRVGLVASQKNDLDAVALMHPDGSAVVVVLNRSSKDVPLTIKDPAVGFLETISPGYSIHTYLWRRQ", "design": "method as in PMID 31944194"}, "β-D-mannosidase (snail)": {"tested_on": "β-D-mannosidase (snail)", "design": "method as in PMID 31944194"}, "[17]": {"molecular_target": "T4, α-D-mannosidase (Jack bean) (Canavalia ensiformis, UniProt C0HJB3)", "T4 construct": "purchased Sigma", "T4 sequence (C0HJB3 1-981)": "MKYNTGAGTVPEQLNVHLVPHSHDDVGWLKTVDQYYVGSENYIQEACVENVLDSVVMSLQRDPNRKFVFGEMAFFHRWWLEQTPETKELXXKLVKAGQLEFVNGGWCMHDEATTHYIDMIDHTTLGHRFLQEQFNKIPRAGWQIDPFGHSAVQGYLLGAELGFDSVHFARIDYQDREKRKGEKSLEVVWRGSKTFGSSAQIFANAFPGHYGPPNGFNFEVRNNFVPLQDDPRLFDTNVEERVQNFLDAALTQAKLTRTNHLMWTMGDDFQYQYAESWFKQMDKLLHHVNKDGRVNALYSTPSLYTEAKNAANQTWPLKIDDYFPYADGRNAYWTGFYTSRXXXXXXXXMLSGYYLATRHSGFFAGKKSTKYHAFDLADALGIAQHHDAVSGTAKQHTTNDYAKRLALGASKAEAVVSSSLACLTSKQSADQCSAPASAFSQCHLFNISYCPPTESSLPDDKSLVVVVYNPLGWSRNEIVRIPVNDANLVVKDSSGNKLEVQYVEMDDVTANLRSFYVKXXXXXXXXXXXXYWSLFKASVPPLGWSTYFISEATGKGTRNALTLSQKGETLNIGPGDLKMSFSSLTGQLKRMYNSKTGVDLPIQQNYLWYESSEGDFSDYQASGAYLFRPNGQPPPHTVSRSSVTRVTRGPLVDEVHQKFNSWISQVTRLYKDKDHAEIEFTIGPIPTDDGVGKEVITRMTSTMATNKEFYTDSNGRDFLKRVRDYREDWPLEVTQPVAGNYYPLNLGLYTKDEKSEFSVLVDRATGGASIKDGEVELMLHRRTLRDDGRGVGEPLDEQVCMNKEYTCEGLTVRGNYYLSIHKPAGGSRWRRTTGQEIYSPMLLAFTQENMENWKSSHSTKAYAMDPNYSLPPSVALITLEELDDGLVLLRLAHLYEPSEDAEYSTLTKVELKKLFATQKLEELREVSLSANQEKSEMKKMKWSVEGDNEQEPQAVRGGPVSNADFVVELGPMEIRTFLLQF", "design": "method as in PMID 31944194"}, "[18]": {"tested_on": "β-D-glucosidase (bovine liver)", "design": "method as in PMID 31944194"}, "[19]": {"tested_on": "α-L-rhamnosidase (P. decumbens)", "design": "method as in PMID 31944194"}, "[20]": {"tested_on": "amyloglucosidase (A. niger)", "design": "method as in PMID 31944194"}, "[21]": {"molecular_target": "T4, α-D-mannosidase (Jack bean)"}, "[22]": {"tested_on": "α-D-galactosidase (coffee bean)"}},
  "note": "Counter-ions that a name gives are not always drawn. Like-named read-outs stand apart in the source and are kept apart here.",
  "data": [
    {"smiles": "Cl.OC[C@@H](O)[C@H]1[C@H](O)[C@H](O)CN1Cc1ccccc1B(O)O", "note": "[N-(2-Methylphenylboronic acid)-1,4-dideoxy-1,4-imino-D-talitol.HCl]", "values": [
      {"measurement": "β-D-galactosidase (E. coli) inhibition", "setting": "[1]", "value": "β-D-galactosidase (E. coli) (44–55%)"}
    ]},
    {"smiles": "OC[C@@H](O)[C@@H]1[C@@H](O)[C@@H](O)CN1Cc1ccccc1", "note": "[N-Benzyl-1,4-dideoxy-1,4-imino-D-allitol]", "values": [
      {"measurement": "α-D-mannosidase Golgi II inhibition", "setting": "[2]", "value": 11, "unit": "%"},
      {"measurement": "β-D-N-acetylhexosaminidase inhibition", "setting": "[3]", "value": 35, "unit": "%"},
      {"measurement": "β-D-mannosidase inhibition", "setting": "β-D-mannosidase", "value": 0, "unit": "%"},
      {"measurement": "α-L-fucosidase inhibition", "setting": "α-L-fucosidase", "value": "α-L-fucosidase (76%)"},
      {"measurement": "α-D-mannosidase lysosomal acidic inhibition", "setting": "[4]", "value": 7, "unit": "%"}
    ]},
    {"smiles": "OC[C@@H](O)[C@H]1[C@H](O)[C@@H](O)CN1Cc1ccccc1", "note": "[N-Benzyl-1,4-dideoxy-1,4-imino-D-galactitol]", "values": [
      {"measurement": "α-D-glucosidase inhibition", "setting": "α-D-glucosidase", "value": 93.2, "unit": "%"},
      {"measurement": "IC50", "setting": "α-D-glucosidase; read-out: IC50 towards α-D-glucosidase", "value": 40.6, "unit": "µM"},
      {"measurement": "aldose reductase inhibition", "setting": "aldose reductase", "value": 32.6, "unit": "%"}
    ]},
    {"smiles": "OC[C@@H](O)[C@@H]1[C@H](O)[C@H](O)CN1Cc1ccccc1", "note": "[N-Benzyl-1,4-dideoxy-1,4-imino-D-mannitol.HCl]", "values": [
      {"measurement": "α-D-mannosidase lysosomal acidic inhibition", "setting": "[5]", "value": 34, "unit": "%"},
      {"measurement": "α-D-galactosidase (coffee bean) inhibition", "setting": "[6]", "value": 8.8, "unit": "%"},
      {"measurement": "β-D-galactosidase (bovine liver) inhibition", "setting": "[7]", "value": 7.9, "unit": "%"},
      {"measurement": "α-D-glucosidase (rice) inhibition", "setting": "α-D-glucosidase (rice)", "value": 34.2, "unit": "%"},
      {"measurement": "IC50", "setting": "[8]", "value": 1500, "unit": "µM"},
      {"measurement": "α-D-mannosidase Golgi II inhibition", "setting": "[9]", "value": 72, "unit": "%"},
      {"measurement": "α-D-glucosidase (rat intestinal maltase) inhibition", "setting": "[10]", "value": 16.6, "unit": "%"},
      {"measurement": "α-D-mannosidase neutral inhibition", "setting": "[11]", "value": 44, "unit": "%"},
      {"measurement": "IC50", "setting": "[12]", "value": 690, "unit": "µM"},
      {"measurement": "α-D-glucosidase (yeast) inhibition", "setting": "α-D-glucosidase (yeast)", "value": 6.5, "unit": "%"},
      {"measurement": "β-D-glucosidase (almond) inhibition", "setting": "β-D-glucosidase (almond)", "value": 6.1, "unit": "%"},
      {"measurement": "α-L-fucosidase (bovine kidney) inhibition", "setting": "[13]", "value": 8.4, "unit": "%"},
      {"measurement": "trehalase (porcine kidney) inhibition", "setting": "[14]", "value": 0, "unit": "%"},
      {"measurement": "β-D-glucuronidase (E. coli) inhibition", "setting": "[15]", "value": 9.8, "unit": "%"},
      {"measurement": "β-D-glucosidase (human lysosome) inhibition", "setting": "[16]", "value": 4.7, "unit": "%"},
      {"measurement": "β-D-mannosidase (snail) inhibition", "setting": "β-D-mannosidase (snail)", "value": 4.4, "unit": "%"},
      {"measurement": "α-D-mannosidase (Jack bean) inhibition", "setting": "[17]", "value": 27, "unit": "%"},
      {"measurement": "β-D-glucosidase (bovine liver) inhibition", "setting": "[18]", "value": 9.5, "unit": "%"},
      {"measurement": "α-L-rhamnosidase (P. decumbens) inhibition", "setting": "[19]", "value": 11.5, "unit": "%"},
      {"measurement": "amyloglucosidase (A. niger) inhibition", "setting": "[20]", "value": 11.4, "unit": "%"}
    ]},
    {"smiles": "OC[C@@H](O)[C@H]1[C@H](O)[C@H](O)CN1Cc1ccccc1", "note": "[N-Benzyl-1,4-dideoxy-1,4-imino-D-talitol.HCl]", "values": [
      {"measurement": "α-D-mannosidase (Jack bean) inhibition", "setting": "[21]", "value": "little inhibition"},
      {"measurement": "α-D-galactosidase (coffee bean) inhibition", "setting": "[22]", "value": "little inhibition"},
      {"measurement": "β-D-galactosidase (E. coli) inhibition", "setting": "[1]", "value": "little inhibition"}
    ]}
  ]
}
